Reference: ChEMBL document CHEMBL2074308, “5'-Amino acid esters of antiviral nucleosides, acyclovir, and AZT are absorbed by the intestinal PEPT1 peptide transporter” (Pharm Res, 1998)

T1: Solute carrier family 15 member 1 (Homo sapiens, UniProt P46059)
T1 sequence (P46059 whole entry): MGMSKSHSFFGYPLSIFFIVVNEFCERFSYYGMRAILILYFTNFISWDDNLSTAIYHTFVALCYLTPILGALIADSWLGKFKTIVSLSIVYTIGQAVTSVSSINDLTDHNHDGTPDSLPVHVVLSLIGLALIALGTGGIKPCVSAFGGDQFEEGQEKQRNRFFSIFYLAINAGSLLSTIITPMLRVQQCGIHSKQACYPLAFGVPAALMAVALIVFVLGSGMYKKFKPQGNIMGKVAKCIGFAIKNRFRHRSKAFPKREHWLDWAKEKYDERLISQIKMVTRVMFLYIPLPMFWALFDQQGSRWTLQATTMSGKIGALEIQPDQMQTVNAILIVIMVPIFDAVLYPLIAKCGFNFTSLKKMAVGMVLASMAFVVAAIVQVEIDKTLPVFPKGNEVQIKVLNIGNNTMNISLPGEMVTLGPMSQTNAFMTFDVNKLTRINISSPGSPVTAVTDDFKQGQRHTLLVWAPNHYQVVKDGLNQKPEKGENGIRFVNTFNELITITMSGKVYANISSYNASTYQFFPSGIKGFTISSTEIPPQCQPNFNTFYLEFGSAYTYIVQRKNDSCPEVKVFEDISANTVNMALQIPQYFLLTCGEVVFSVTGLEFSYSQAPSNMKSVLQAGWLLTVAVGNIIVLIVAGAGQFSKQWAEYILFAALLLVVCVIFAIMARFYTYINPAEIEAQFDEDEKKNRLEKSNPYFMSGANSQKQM

B1: Solute carrier family 15 member 1 (Homo sapiens), P46059 (protein)
chain: T1 sequence (P46059 whole entry)

Assays:
[1] = target: T1, Solute carrier family 15 member 1; test: TP_TRANSPORTER: inhibition of Gly-Sar uptake, D-form (Gly-Sar: 20 uM) in PEPT1-expressing CHO cells; assay type: functional, cell-based
[2] = target: T1, Solute carrier family 15 member 1; test: TP_TRANSPORTER: inhibition of Gly-Sar uptake (Gly-Sar: 20 uM) in PEPT1-expressing CHO cells; assay type: functional, cell-based
[3] = target: T1, Solute carrier family 15 member 1; test: TP_TRANSPORTER: inhibition of Gly-Sar uptake, L-form (Gly-Sar: 20 uM) in PEPT1-expressing CHO cells; assay type: functional, cell-based
[4] = substrate: CC(C)[C@H](N)C(=O)OCCOCn1cnc2c(=O)nc(N)[nH]c21; settings: Caco-2
Description: TP_TRANSPORTER: transepithelial transport (apical to basal), L-form in Caco-2 cells

Molecule	IC50 [1]	IC50 [2]	IC50 [3]	Km [4]
CC(C)[C@H](N)C(=O)OCCOCn1cnc2c(=O)[nH]c(N)nc21 [VALACYCLOVIR]	3400 µM	400 µM	1100 µM	–
NCC(=O)OCCOCn1cnc2c(=O)[nH]c(N)nc21 [GLYCYL ESTER OF ACYCLOVIR]	–	1400 µM	–	–
CCOC(=O)[C@H](CCc1ccccc1)N[C@@H](C)C(=O)N1CCC[C@H]1C(=O)O [ENALAPRIL]	–	15000 µM	–	–
CC1=C(C(=O)O)N2C(=O)[C@@H](NC(=O)[C@H](N)C3=CCC=CC3)[C@H]2SC1 [CEPHRADINE]	–	15000 µM	–	–
B1	–	–	–	292 µM
